Each block holds one compound with its values, some of them ahead of it.
Key:
Rattus norvegicus = experiment: Ability to inhibit the food intake of Sprague-Dawley rats at 30 mg/kg after intraperitoneal administration.; type: functional; settings: ip
Rhesus monkey [1] = experiment: Effective dose to stimulate lipolysis in Rhesus monkeys (iv); type: functional, Cercopithecidae; settings: Macaca mulatta
[2] = Bioavailability in dogs; type: ADME, organism-based, Canis lupus familiaris; settings: dog, in vivo; read-out: Bioavailabiility
[3] = molecular target: T1, Beta-3 adrenergic receptor (Homo sapiens, UniProt P13945); experiment: Binding affinity towards human Beta-3 adrenergic receptor
Target sequence in this assay (P13945 whole entry): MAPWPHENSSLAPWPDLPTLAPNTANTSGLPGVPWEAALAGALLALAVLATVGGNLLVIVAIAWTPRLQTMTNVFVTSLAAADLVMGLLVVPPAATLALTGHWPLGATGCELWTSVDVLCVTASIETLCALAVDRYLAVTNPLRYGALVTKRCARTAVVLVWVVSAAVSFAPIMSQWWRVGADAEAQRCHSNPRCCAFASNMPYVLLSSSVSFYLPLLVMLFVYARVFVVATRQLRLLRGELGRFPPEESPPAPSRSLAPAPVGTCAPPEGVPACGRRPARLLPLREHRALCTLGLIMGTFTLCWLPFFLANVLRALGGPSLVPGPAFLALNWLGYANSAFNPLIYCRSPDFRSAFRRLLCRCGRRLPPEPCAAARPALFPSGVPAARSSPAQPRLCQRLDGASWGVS

[4] = Oral bioavailability in rat; type: ADME, organism-based; settings: in vivo
[5] = molecular target: T1, Beta-3 adrenergic receptor; experiment: Binding affinity towards Beta-3 adrenergic receptor
Target sequence in this assay (P13945 whole entry): as above

[6] = molecular target: T1, Beta-3 adrenergic receptor; experiment: Beta-3 adrenergic receptor intrinsic activity relative to isoproterenol
Target sequence in this assay (P13945 whole entry, looked up): as the sequence (P13945 whole entry) above

[7] = Oral bioavailability of the compound.; type: ADME, organism-based; settings: in vivo
[8] = molecular target: T2, Neuropeptide Y receptor type 5 (Rattus norvegicus, UniProt Q63634); experiment: The compound was tested for the binding affinity against Neuropeptide Y receptor type 5 in rat
T2 sequence (Q63634 whole entry): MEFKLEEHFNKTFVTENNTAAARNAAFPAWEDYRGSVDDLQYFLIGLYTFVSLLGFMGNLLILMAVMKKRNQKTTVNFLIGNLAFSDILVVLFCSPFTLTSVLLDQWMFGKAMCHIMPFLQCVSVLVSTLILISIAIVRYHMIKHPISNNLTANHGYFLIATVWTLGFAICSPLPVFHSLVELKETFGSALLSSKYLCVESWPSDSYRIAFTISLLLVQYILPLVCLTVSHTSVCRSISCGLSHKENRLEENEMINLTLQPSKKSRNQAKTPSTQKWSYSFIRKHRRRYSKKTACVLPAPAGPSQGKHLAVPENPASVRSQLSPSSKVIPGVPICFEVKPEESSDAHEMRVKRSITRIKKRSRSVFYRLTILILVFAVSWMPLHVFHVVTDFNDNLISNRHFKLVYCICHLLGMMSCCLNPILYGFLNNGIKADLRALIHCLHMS

[9] = Bioavailability in rat; type: ADME, organism-based; settings: in vivo, read-out: Bioavailabiility
[10] = Bioavailability in dog; type: ADME, organism-based, Canis lupus familiaris; settings: in vivo
[11] = molecular target: T3, Neuropeptide Y receptor type 1 (Rattus norvegicus, UniProt P21555); experiment: The compound was tested for the binding affinity against Neuropeptide Y receptor type 1 in rat
T3 sequence (P21555 whole entry): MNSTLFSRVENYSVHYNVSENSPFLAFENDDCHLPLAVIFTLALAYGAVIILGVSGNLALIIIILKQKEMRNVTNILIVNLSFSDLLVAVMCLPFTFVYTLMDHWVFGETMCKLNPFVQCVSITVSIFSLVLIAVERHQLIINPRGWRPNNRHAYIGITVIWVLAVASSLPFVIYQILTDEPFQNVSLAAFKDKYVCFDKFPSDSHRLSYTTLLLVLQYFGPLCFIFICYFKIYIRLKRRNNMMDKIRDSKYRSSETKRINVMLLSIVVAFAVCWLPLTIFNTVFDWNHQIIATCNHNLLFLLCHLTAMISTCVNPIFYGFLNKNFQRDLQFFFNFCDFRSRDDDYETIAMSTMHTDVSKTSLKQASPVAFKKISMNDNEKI

Rhesus monkey [12] = experiment: Effective dose to stimulate lipolysis in Rhesus monkeys(iv); type: functional, Cercopithecidae; settings: Macaca mulatta
[13] = molecular target: T4, Cholecystokinin receptor type A (Mus musculus, UniProt O08786); experiment: Binding affinity in Cholecystokinin type A receptor binding assay […]
T4 sequence (O08786 whole entry): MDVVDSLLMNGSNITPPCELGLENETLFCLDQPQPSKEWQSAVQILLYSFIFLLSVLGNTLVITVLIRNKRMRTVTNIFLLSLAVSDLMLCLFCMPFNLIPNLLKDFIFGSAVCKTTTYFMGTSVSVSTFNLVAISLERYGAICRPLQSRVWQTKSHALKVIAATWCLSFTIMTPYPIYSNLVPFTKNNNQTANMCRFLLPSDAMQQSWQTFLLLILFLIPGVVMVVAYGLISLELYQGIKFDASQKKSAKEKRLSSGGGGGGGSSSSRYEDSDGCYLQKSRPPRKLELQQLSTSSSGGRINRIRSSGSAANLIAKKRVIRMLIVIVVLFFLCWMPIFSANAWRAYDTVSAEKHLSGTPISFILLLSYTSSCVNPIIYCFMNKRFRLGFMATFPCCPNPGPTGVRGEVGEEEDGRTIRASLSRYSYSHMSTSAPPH

[14] = molecular target: T5, Neuropeptide Y receptor type 1 (Homo sapiens, UniProt P25929); experiment: The compound was tested for the binding affinity against Neuropeptide Y receptor type 1
T5 sequence (P25929 whole entry): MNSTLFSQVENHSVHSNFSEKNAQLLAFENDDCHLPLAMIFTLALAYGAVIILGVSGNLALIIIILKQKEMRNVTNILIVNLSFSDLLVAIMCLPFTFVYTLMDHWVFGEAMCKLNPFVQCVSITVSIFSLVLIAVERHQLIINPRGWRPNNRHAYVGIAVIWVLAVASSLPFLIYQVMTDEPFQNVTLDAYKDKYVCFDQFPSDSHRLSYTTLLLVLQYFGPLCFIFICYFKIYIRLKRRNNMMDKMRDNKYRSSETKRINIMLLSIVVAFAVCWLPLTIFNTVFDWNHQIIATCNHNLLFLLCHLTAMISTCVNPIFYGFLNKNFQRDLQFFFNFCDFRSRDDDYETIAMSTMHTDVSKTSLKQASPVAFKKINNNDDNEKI

[15] = molecular target: Neuropeptide Y receptor type 4 (Rattus norvegicus, UniProt Q63447); experiment: The compound was tested for the binding affinity against Neuropeptide Y receptor type 4
[16] = molecular target: T3, Neuropeptide Y receptor type 1; experiment: The compound was tested for the binding affinity against NPY1 (Neuropeptide Y receptor type 1)
[17] = molecular target: T6, Neuropeptide Y receptor type 2 (Rattus norvegicus, UniProt Q9ERC0); experiment: The compound was tested for the binding affinity against Neuropeptide Y receptor type 2
T6 sequence (Q9ERC0 whole entry): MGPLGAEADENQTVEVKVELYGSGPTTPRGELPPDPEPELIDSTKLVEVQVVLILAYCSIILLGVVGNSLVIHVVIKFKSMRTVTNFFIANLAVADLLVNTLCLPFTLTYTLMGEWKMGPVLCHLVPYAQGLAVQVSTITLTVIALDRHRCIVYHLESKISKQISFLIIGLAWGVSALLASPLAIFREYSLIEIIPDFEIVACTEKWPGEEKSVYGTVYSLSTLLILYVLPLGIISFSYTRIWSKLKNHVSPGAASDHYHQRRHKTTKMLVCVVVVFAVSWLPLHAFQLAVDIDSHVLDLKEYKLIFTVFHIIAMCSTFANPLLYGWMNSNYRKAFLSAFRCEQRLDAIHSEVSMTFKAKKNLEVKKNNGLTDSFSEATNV

Chain of Neuropeptide Y receptor type 4 (Q63447 whole entry): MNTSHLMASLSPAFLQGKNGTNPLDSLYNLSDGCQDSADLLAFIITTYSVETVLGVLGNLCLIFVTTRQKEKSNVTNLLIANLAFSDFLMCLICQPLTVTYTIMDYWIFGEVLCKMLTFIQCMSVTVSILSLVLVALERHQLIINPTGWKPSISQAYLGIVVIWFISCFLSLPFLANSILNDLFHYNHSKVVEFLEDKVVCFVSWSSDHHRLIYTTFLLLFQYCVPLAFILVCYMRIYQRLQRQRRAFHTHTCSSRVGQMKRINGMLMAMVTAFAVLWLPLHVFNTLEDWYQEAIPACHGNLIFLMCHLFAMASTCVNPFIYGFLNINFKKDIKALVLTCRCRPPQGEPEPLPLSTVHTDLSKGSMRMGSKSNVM

SMILES: CN(C)CCCNc1nc(NC[C@H]2CC[C@H](CNS(=O)(=O)c3cccc4ccccc34)CC2)nc2ccccc12
inhibition in vivo at 30 mg/kg (Rattus norvegicus): 96%

SMILES: Nc1ccc(OC[C@@H](O)CNCCc2ccc(NS(=O)(=O)c3ccc(I)cc3)cc2)cn1
ED50 (Rhesus monkey [1]): 0.8 mg/kg

SMILES: O=S(=O)(Nc1ccc(CCNC[C@H](O)c2cccnc2)cc1)c1ccc(I)cc1
bioavailability [2]: 51%

SMILES: COc1ccc(N(C(=O)CN2C(=O)C(Cc3n[nH]c4ccccc34)C(=O)N(c3ccccc3)c3ccccc32)C(C)C)cc1 (configuration not stated)
bioavailability [4]: 8%

SMILES: CCCCNC(=O)[C@@H]1Cc2ccccc2N1C(=O)CC(N)CC (some centres not stated)
Ki [13]: 7 nM

SMILES: CC[C@H]1CC[C@@](c2cccc(OCOC)c2)(N2CCN(c3ccccc3)CC2)CC1
IC50 [14]: 39 nM

SMILES: Cc1cc(N2CCCC2)cc(/C=C/c2cccc(C(F)(F)F)c2)n1
IC50 [8]: 4.1 nM

SMILES: O=C(CN1CCC(n2c(=O)[nH]c3ccccc32)CC1)Nc1ccc2c(c1)-c1ccccc1C2=O
IC50 [15]: > 5000 nM
IC50 [16]: > 5000 nM
IC50 [17]: > 5000 nM

More lines, main results first:

EC50 [3]: 30 nM
SMILES: CC(C)(Cc1ccc(Oc2ccc(C(N)=O)cn2)cc1)NC[C@H](O)COc1cccc2[nH]c(=O)[nH]c12

EC50 [5]: < 300 nM
Intrinsic activity [6]: > 80%
SMILES: CCCCCCP(=O)(O)COc1ccc(C[C@@H](C)NC[C@H](O)COc2ccc(O)c3c2CCC(=O)N3)cc1

bioavailability [7]: 1%
SMILES: CCCCCCNC(=O)Nc1ccc(S(=O)(=O)Nc2ccc(CCNC[C@H](O)COc3ccc(O)cc3)cc2)cc1 [L-755507]

IC50 [8]: 2.3 nM
SMILES: COc1ccc(-c2cc(NC(=O)CC34CCCC3Cc3ccccc3C4)[nH]n2)cc1OC (configuration not stated)

bioavailability [9]: 4%
F [10]: 41%
bioavailability [10]: 47%
SMILES: CC(C)c1ccc(S(=O)(=O)Nc2ccc(CCNC[C@H](O)COc3ccc(N)nc3)cc2)cc1

IC50 [11]: 1.7 nM
SMILES: Clc1ccc(OCc2nc3c(OCCCN4CCCCC4)cccc3n2CCCC2CCCNC2)cc1 (configuration not stated)

Ki [3]: 9 nM
SMILES: CS(=O)(=O)Nc1cc([C@@H](O)CN[C@H](Cc2cccc(Cl)c2)c2ccc(OC(F)F)cc2)ccc1O

IC50 [8]: 8.3 nM
SMILES: COc1ccc(-c2cc(NC(=O)Cc3ccc4ccccc4c3)[nH]n2)cc1OC

bioavailability [10]: 47%
SMILES: O=S(=O)(Nc1ccc(CCNC[C@H](O)COc2cccnc2)cc1)c1ccc(I)cc1 [L-749372]
ED50 (Rhesus monkey [12]): 2 mg/kg

bioavailability [9]: < 10%
EC50 [3]: 300 nM
SMILES: Cn1c(C(=O)O)cc2cc(OCCNC[C@H](O)c3ccc(N)nc3)ccc21

EC50 [5]: < 300 nM
Intrinsic activity [6]: > 80%
SMILES: C[C@H](Cc1ccc(OCP(=O)(O)c2ccccc2)cc1)NC[C@H](O)COc1ccc(O)c(NS(C)(=O)=O)c1
